The values below are quoted from earlier work in patent US20050202566A1, “Device and method for determining parameters” (priority 2002, published 2005).

The structures appear in SMILES notation.

The data set concerns thrombus formation. The following applies: ex vivo flow models using whole blood; with increasing shear.

Take `O=C(O)COc1ccc(CCNS(=O)(=O)c2ccccc2)s1` [Linotroban]: the “inhibition of thrombus formation as a function of shear” value was “increasingly inhibit thrombus formation”.

In the case of `CC(=O)Oc1ccccc1C(=O)O` [aspirin], the “inhibition of thrombus formation as a function of shear” value was “increasingly inhibit thrombus formation”.
